Experimental findings from US4374149A, “α-{[(Arylalkyl)amino]alkyl}-4-hydroxy-3-(lower-alkylsul finyl)benzenemethanols” (Sterling Drug Inc., priority 1978, dated 1983) are described below.

Each structure is given as a SMILES string. Structures can show the parent of a compound that is named as a salt.

One series has as its system systolic blood pressure. The series is described as follows: Antihypertensive activity, reduction in systolic blood pressure, single oral medication, unanesthetized spontaneous hypertensive rat. Type of series: in vivo. Particulars: for Actual reduction in blood pressure observed at the indicated dose / Antihypertensive activity SH Rat AHD40 (single oral dose required to induce a 40 mm. average reduction in systolic blood pressure): P.O.; for Antihypertensive activity SH Rat AHD40 (single oral dose required to induce a 40 mm. average reduction in systolic blood pressure): unanesthetized SH rat.

The next series concerns β-adrenergic. Put plainly: β-adrenergic blocking activity, inhibition of isoproterenol-elicited heart rate increase in pentobarbitalized dog. Conditions: i.v.; for Dog β-blockade AED50 (approximate intravenous dose for 50% inhibition of isoproterenol-elicited heart rate increase): pentobarbitalized dog. Type of series: in vivo.
Series [1] concerns Ouabain-induced arrhythmia. The series is described as follows: Conversion of ouabain-induced arrhythmia in dogs. Type of series: in vivo, mongrel dogs. Further details: key: active (A); inactive (I). The procedure: (§1) The test procedures were carried out as follows.
Na-pentobarbital supplements were given i.v. as needed.
Both parameters were printed out on a Grass polygraph.

In a further series the test system is Ba++-induced arrhythmia. The series is described as follows: Conversion of Ba++-induced arrhythmia in rabbits. Type of series: in vivo. Further details: key: active (A); inactive (I). The procedure: as §1
Adult rabbits or either sex weighing between 1.7 and 2.3 kg. were anesthetized with 30 to 35 mg./kg. Na-pentobarbital i.v. via a marginal ear vein. Monoplar ECG pin electrodes were inserted for a lead II display on a Model 5 Grass Polygraph using standard electrocardiographic procedures. A 23 ga. hypodermic needle, attached via a polyethylene catheter to a 10 cc. syringe, was inserted into the same vein as was used for anesthesia. A BaCl2.2H2 O solution in saline was then infused at a constant volume of 0.2 cc/min. from a Harvard Apparatus Model 600 infusion pump. This infusion was not stopped until termination of the experiment. In some studies barium chloride in distilled water was used without detectable differences. The standard rate of BaCl2.2H2 O infusion was established at 0.3 mg./kg./min. (1.2×10^-6 M/kg./min.), and the concentration was adjusted appropriately in each case to accommodate the weight of the rabbit.
When the desired arrhythmia was established, the test compound was introduced as a water or saline solution into the marginal ear vein of the unused ear. The volume used was between 0.5 and 2.0 cc./kg. and was injected as a bolus over approximately 30 seconds. Deviations from standard vehicle, rate of injection and total volume administered were at the discretion of the operator. The standard initial dose of an unknown compound on the first rabbit was 5×10^-5 M/kg. In general, two to three rabbits were used to determine anti-arrhythmic activity and the dose range of activity; multiple doses were administered. Once activity and dose was indicated, two additional rabbits were employed to confirm anti-arrhythmic activity against a multifocal tachycardia.

For a further series, the system named is hind limb vasculature. Put plainly: Vasodilator activity, perfusion pressure in hind limb vasculature of anesthetized dog. Particulars: intraarterial, anesthetized dog hind limb; for ED50: Canis lupus familiaris, read-out: Vasodilator activity Dog-Leg Perfusion AED50 (approximate intraarterial dose for 50 reduction in perfusion pressure). Type of series: in vivo. The source says: (§2) Vasodilator activity was judged on the basis of observed reduction in perfusion pressure in the hind limb vasculature of the anesthetized dog determined according to the procedure described by Jandhyala et al., European J. Pharm. 17, 357 (1972), and also on the basis of percent reduction in perfusion pressure as measured in the isolated rabbit ear artery according to the method described by De LaLande et al., Aust. J. Exp. Biol. Med. Sci. 43, 639 (1965).
^c AED50 = approximate intraarterial dose required to cause a 50

Series [2] has as its system isolated rabbit ear artery. Put plainly: Vasodilator activity, perfusion pressure in isolated rabbit ear artery.
Text: as §2
^d Vasodilation is expressed as the percentage reduction in perfusion

The test system of another series is blood pressure. Put plainly: Antihypertensive activity, sustained lowering of blood pressure, repeated oral medication, unanesthetized trained renal hypertensive dog. Type of series: in vivo. Conditions: tid.; for Actual percentage reduction in blood pressure observed at the indicated dose: 0.125 mg./kg.
Series [3] is described as follows: Acute intravenous and oral toxicity in mice. Type of series: in vivo. The procedure:
Acute intravenous and oral toxicity in mice was determined for the compound of Example 2G as follows: The compound was dissolved in distilled water and administered as the base at a volume of 10 ml./kg. for the i.v. ALD50 or 10-40 ml./kg. for the p.o. ALD50. The compound was administered in graded doses to groups of three mice each (Swiss-Webster strain males weighing 20±2 g.). Mortality occurred within 1 minute after i.v. administration and within 10 minutes after oral administration. […] The i.v. ALD50 was 75 mg./kg. and the p.o. ALD50 was 1500 mg./kg.

In general, LD50 refers to the dose expected to kill half of the subjects tested.

Procedure for systolic blood pressure: Antihypertensive activity was determined on the basis of the observed reduction in systolic blood pressure measured according to the method of H. Kersten et al., J. Lab. and Clin. Med. 32, 1090 (1947) following a single oral medication in the unanesthetized spontaneous hypertensive rat described by Okamato et al., Japan Circulation J. 27, 282 (1963).
^a AHD40 = single oral dose required to induce a 40 mm. average
Procedure for β-adrenergic: The β-adrenergic blocking activity was determined in the pentobarbitalized dog as judged by the ability of the test compound to inhibit the elevation in heart rate elicited by a 0.5 mcg./kg. i.v. injection of isoproterenol.
^e AED50 = approximate intravenous dose required to cause 50%

As to `CC(CCc1ccc(O)cc1)NCCc1ccc(O)c([S+](C)[O-])c1` (single isomer, unassigned) [Example 30E, 4-<2-{[3-(4-hydroxy-phenyl)-1-mehylpropyl]amino}ethyl>-2-(methylsulfinyl)phenol hydrochloride], the “Actual reduction in blood pressure observed at the indicated dose” value (shortened to “Actual reduction”) with systolic blood pressure (50 mg./kg.) was -3 mm. Hg. Also, in the series on systolic blood pressure, the “Antihypertensive activity SH Rat AHD40 (single oral dose required to induce a 40 mm. average reduction in systolic blood pressure)” value was above 50 mg/kg. The “Dog β-blockade AED50 (approximate intravenous dose for 50% inhibition of isoproterenol-elicited heart rate increase)” value with β-adrenergic is recorded as “ca. 0.50 mg./kg”. In addition, in series [1] (1 × 10^-5 M/kg.), the “Conversion of Ouabain-induced Arrhythmia” value was “A”. Besides, the “Conversion of Ba++-induced Arrhythmia” value in the series on Ba++-induced arrhythmia (2 × 10^-5 M/kg.) is reported as “A”.
As for `CC(=O)O.C[S+]([O-])c1cc(C(O)CNC(C)(C)CCc2ccccc2)ccc1O` (stereo not drawn) [Example 17C, α-{[(1,1-dimethyl-3-phenylpropyl)amino]methyl}-4-hydroxy-3-(methylsulfinyl)benzenemethanol acetate salt], the “Actual reduction” value with systolic blood pressure (20 mg./kg.) is listed as -37 mm. Hg. The “Antihypertensive activity SH Rat AHD40 (single oral dose required to induce a 40 mm. average reduction in systolic blood pressure)” value with systolic blood pressure is above 20.0 mg/kg. Also, in the series on hind limb vasculature, the ED50 came to 0.5 mg/kg. Besides, in series [2] (5 × 10^-5 M, 50 µM), the “Rabbit Ear Artery vasodilation (percentage reduction in perfusion pressure from control level)” value is reported as 50%. In addition, the “Dog β-blockade AED50 (approximate intravenous dose for 50% inhibition of isoproterenol-elicited heart rate increase)” value in the series with β-adrenergic worked out at 0.05 mg/kg. The “Conversion of Ouabain-induced Arrhythmia” value in series [1] (5 × 10^-6 M/kg.) is “A”. The “Conversion of Ba++-induced Arrhythmia” value in the series with Ba++-induced arrhythmia (2.5 × 10^-6 M/kg.) was “A”.
`COc1ccc(CCC(C)(C)NCC(O)c2ccc(O)c([S+](C)[O-])c2)cc1` (stereo not drawn) [Example 18D, α-<{[1,1-dimethyl-3-(4-methoxyphenyl)propyl]amino}methyl>-4-hydroxy-3-(methylsulfinyl)benzenemethanol acetate salt]: in the series on systolic blood pressure (20 mg./kg.), the “Actual reduction” value was -26 mm. Hg. The “Antihypertensive activity SH Rat AHD40 (single oral dose required to induce a 40 mm. average reduction in systolic blood pressure)” value in the series with systolic blood pressure is above 20.0 mg/kg. Moreover, in the series with blood pressure, the “Renal Hypertensive Dog MED10 (minimum repeated oral daily dose for sustained lowering of blood pressure of 10% or greater)” value is above 0.125 mg/kg and the “Actual percentage reduction in blood pressure observed at the indicated dose” value stood at 0%. For the same molecule, the ED50 in the series with hind limb vasculature amounted to 0.5 mg/kg. The “Rabbit Ear Artery vasodilation (percentage reduction in perfusion pressure from control level)” value in series [2] (1 × 10^-4 M, 100 µM) turned out to be 42%. Moreover, the “Actual percentage inhibition of heart rate increase above control level observed at the indicated dose” value in the series on β-adrenergic (1.0 mg./kg.) is recorded as 100%. Also, the “Dog β-blockade AED50 (approximate intravenous dose for 50% inhibition of isoproterenol-elicited heart rate increase)” value with β-adrenergic was below 1.0 mg/kg. For the same molecule, in the series with Ba++-induced arrhythmia (5 × 10^-6 M/kg.), the “Conversion of Ba++-induced Arrhythmia” value is reported as “A”.
With `CC(=O)O.CC(CCc1ccccc1)NCC(O)c1ccc(O)c([S+](C)[O-])c1` (stereo not drawn) [Example 19C, 4-hydroxy-α-{[(1-methyl-3-phenylpropyl)amino]methyl}-3-(methylsulfinyl)benzenemethanol acetate salt], the “Antihypertensive activity SH Rat AHD40 (single oral dose required to induce a 40 mm. average reduction in systolic blood pressure)” value with systolic blood pressure was 20.0 mg/kg. Besides, in the series on blood pressure, the “Renal Hypertensive Dog MED10 (minimum repeated oral daily dose for sustained lowering of blood pressure of 10% or greater)” value was above 0.125 mg/kg and the “Actual percentage reduction in blood pressure observed at the indicated dose” value amounted to 0%. Further, the ED50 with hind limb vasculature stood at 0.5 mg/kg. Moreover, the “Rabbit Ear Artery vasodilation (percentage reduction in perfusion pressure from control level)” value in series [2] (5 × 10^-5 M, 50 µM) is reported as 50%. Besides, the “Actual percentage inhibition of heart rate increase above control level observed at the indicated dose” value in the series with β-adrenergic (0.025 mg./kg.) is given as 67%. For the same molecule, the “Dog β-blockade AED50 (approximate intravenous dose for 50% inhibition of isoproterenol-elicited heart rate increase)” value in the series with β-adrenergic is below 0.025 mg/kg. Moreover, in series [1] (5 × 10^-5 M/kg.), the “Conversion of Ouabain-induced Arrhythmia” value is “A”. The “Conversion of Ba++-induced Arrhythmia” value in the series on Ba++-induced arrhythmia (2.5 × 10^-6 M/kg.) was “A”.
In the case of `COc1ccc(CCC(C)(C)NCCc2ccc(O)c([S+](C)[O-])c2)cc1` (stereo not drawn) [Example 34C, 4-<2-{[3-(4-methoxyphenyl)-1,1-dimethylpropyl]amino}ethyl>-2-(methylsulfinyl)phenol hydrochloride], the “Actual reduction” value in the series with systolic blood pressure (50 mg./kg.) is on record as -8 mm. Hg. For the same molecule, the “Antihypertensive activity SH Rat AHD40 (single oral dose required to induce a 40 mm. average reduction in systolic blood pressure)” value with systolic blood pressure is above 50 mg/kg. Moreover, the “Actual percentage inhibition of heart rate increase above control level observed at the indicated dose” value in the series with β-adrenergic (1.0 mg./kg.) turned out to be 40%. In addition, the “Dog β-blockade AED50 (approximate intravenous dose for 50% inhibition of isoproterenol-elicited heart rate increase)” value in the series on β-adrenergic was above 1.0 mg/kg. Also, in series [1] (2 × 10^-5 M/kg.), the “Conversion of Ouabain-induced Arrhythmia” value is recorded as “A”. In addition, the “Conversion of Ba++-induced Arrhythmia” value in the series on Ba++-induced arrhythmia (2.5 × 10^-6 M/kg.) is listed as “A”.
On to `COc1ccc(CCC(C)NCC(O)c2ccc(O)c([S+](C)[O-])c2)cc1` (stereo not drawn) [Example 2G, 4-hydroxy-α-<{[3-(4-methoxyphenyl)-1-methylpropyl]amino}methyl>-3-(methylsulfinyl)benzenemethanol acetate salt], for which the “Antihypertensive activity SH Rat AHD40 (single oral dose required to induce a 40 mm. average reduction in systolic blood pressure)” value with systolic blood pressure (acetate salt) is 2.0 mg/kg. Besides, in the series with systolic blood pressure (standard pharmacological tests on representative examples), the “Antihypertensive activity (in words)” value is recorded as “high antihypertensive activity”. For the same molecule, the “Renal Hypertensive Dog MED10 (minimum repeated oral daily dose for sustained lowering of blood pressure of 10% or greater)” value with blood pressure came out at 0.0316 mg/kg. For the same molecule, in the series with hind limb vasculature (acetate salt), the “Vasodilator activity Dog-Leg Perfusion AED50 (approximate intraarterial dose for 50 reduction in perfusion pressure)” value was determined as 0.5 mg/kg. Moreover, the “Rabbit Ear Artery vasodilation (percentage reduction in perfusion pressure from control level)” value in series [2] (5 × 10^-5 M, 50 µM, acetate salt) turned out to be 50%. Moreover, the “Dog β-blockade AED50 (approximate intravenous dose for 50% inhibition of isoproterenol-elicited heart rate increase)” value in the series with β-adrenergic (acetate salt) amounted to 0.025 mg/kg. Further, the “Time of mortality after i.v. administration” value in series [3] (i.v.) was at most 1 min. In addition, the “Symptoms of acute intoxication for the fatalities” value in series [3] (mouse, in vivo) was “atoxia, loss of righting reflux, clonic convulsions and dyspnea followed by respiratory arrest”. Further, the “Untoward symptoms in survivors” value in series [3] (mouse, in vivo) is “no untoward symptoms observed for up to 7 days for the survivors”. The 50% lethal dose (LD50) in series [3] (mouse, in vivo, iv) is 75 mg/kg; in series [3] (mouse, in vivo, po), 1500 mg/kg. The “Time of mortality after oral administration” value in series [3] (oral) was at most 10 min.
